System: S. neurona merozoites
Assay: Ionophore A23187-stimulated merozoite release from infected host cell monolayers
Format: cell-based, Sarcocystis neurona
Protocol: A stock solution of calcium ionophore A23187 (Sigma) was prepared in dimethylsulfoxide to a final concentration of 1 mg/ml and stored at −20° C. Infected cell monolayers (see example 1) at 12 days post infection were washed three times with PBS or Hanks Balanced Salts Solution (HBSS), and 10 ml of A23187 (1 μM in HBSS) was added to the washed monolayer and incubated at 37° C. for 40 min. in 5% CO2, 95% air. Free merozoites were collected by centrifugation and washed in PBS as above. Parasites released by this method were examined by density gradient centrifugation, but further separation from host cell debris by density gradient centrifugation was not routinely necessary. For further purification, parasites recovered from the supernatant were isolated from host cell debris on a discontinuous buoyant density gradient using Iodixanol (Optiprep) in PBS or HBSS. Merozoites were suspended gently in 1.0 ml PBS and were layered onto a preformed, three step discontinuous gradient with layers of 1.03, 1.04 and 1.06 g/ml in a 15 ml round bottom centrifuge tube. The gradient was centrifuged at 1000×g for 25 min at 20° C. with the brake off. Fractions containing particulate material at each interface were collected and examined microscopically. The fractions(s) containing significant amounts of merozoites were collected for use.
Lung cells at 60% confluence were seeded at a density of 0.1 merozoites per host cell and parasite growth was monitored microscopically for 30 days. Free parasites were not observed until 10 days post infection. During most of the period of observation, the percentage of extracellular parasites was less than 10%. On day 28, the largest number of free parasites was counted; but the next day the numbers of extracellular parasites was back to less than 10%. Duplicate 75 cm flasks were grown for 12 days in HL cells and treated with HBSS or HBSS with 1 μM A23187. Free parasites were collected by centrifugation and counted with a hemocytometer.

CNc1ccc2oc(C[C@H]3O[C@@]4(CC[C@H]3C)O[C@H]([C@H](C)C(=O)c3ccc[nH]3)[C@H](C)C[C@H]4C)nc2c1C(=O)O [A23187] was tested, and the “Merozoite release in response to ionophore treatment” value (infected GT, HFF, CHO, BHK and primary EM cells, same conditions) was “refractory”, the “Enhancement of collection of parasites free in the culture medium” value (infected host cells incubated 40 min in 1 μM A23187) was 90 fold and the “Merozoite release in response to ionophore treatment” value (parasitized BM, BM0617, HL, BT and ED cells) was “released merozoites”.
